Legend:
[1] = mn = molality of the nth substance listed, in mol/kg; conditions: 101 kPa, Liquid; for viscosity: Capillary tube (Ostwald / Ubbelohde) method
[2] = 298.15 K; 101.33 kPa; Liquid; Pycnometric method
[3] = refractive index (Na D-line) (dimensionless); conditions: 298.15 K; 101.33 kPa; Liquid; Standard Abbe refractometry

O [water] + CCOCCOCCO
[1], m2 = 0
Conditions | viscosity [mPa·s]
275.15 K | 1.674
283.15 K | 1.31

[1], m2 = 0
Conditions | mass density [kg/m3]
275.15 K, Pycnometric method | 999.94
283.15 K, Buoyancy - hydrostatic balance with magnetic suspension - one sinker | 999.7

COCCOCCO [2-(2-methoxyethoxy)ethanol]
Conditions | mass density [kg/m3] | refractive index
[2] | 1014.39 | –
[3] | – | 1.4245

O [water] + COCCOCCO
[1], m2 = 0
Conditions | viscosity [mPa·s]
275.15 K | 1.674
283.15 K | 1.31

[1], m2 = 0
Conditions | mass density [kg/m3]
275.15 K, Pycnometric method | 999.94
283.15 K, Buoyancy - hydrostatic balance with magnetic suspension - one sinker | 999.7

O [water] + COCCO
[1], m2 = 0
Conditions | viscosity [mPa·s]
275.15 K | 1.674
283.15 K | 1.31

[1], m2 = 0
Conditions | mass density [kg/m3]
275.15 K, Pycnometric method | 999.94
283.15 K, Buoyancy - hydrostatic balance with magnetic suspension - one sinker | 999.7

CCOCCOCCO [3,6-dioxa-1-octanol] + O
viscosity [mPa·s], [1]
Conditions | 275.15 K | 283.15 K
m1 = 0.0092 | – | 1.004
m1 = 0.0108 | 1.008 | –
m1 = 0.019 | – | 1.008
m1 = 0.0203 | 1.015 | –
m1 = 0.0291 | – | 1.013
m1 = 0.0306 | 1.022 | –
m1 = 0.0409 | 1.029 | –
m1 = 0.0416 | – | 1.019
m1 = 0.0482 | – | 1.023
m1 = 0.0504 | 1.035 | –
m1 = 0.062 | – | 1.03
m1 = 0.0625 | 1.043 | –
m1 = 0.0687 | – | 1.034
m1 = 0.0707 | 1.048 | –
m1 = 0.0796 | – | 1.041
m1 = 0.0809 | 1.053 | –
m1 = 0.0904 | 1.058 | 1.047
m1 = 0.091 | – | 1.047
m1 = 0.0998 | – | 1.053
m1 = 0.1019 | – | 1.054
m1 = 0.1025 | 1.047 | –

[1]
Conditions | mass density [kg/m3]
275.15 K, Pycnometric method, m1 = 0.0108 | 1000.05
275.15 K, Pycnometric method, m1 = 0.0203 | 1000.15
275.15 K, Pycnometric method, m1 = 0.0306 | 1000.23
275.15 K, Pycnometric method, m1 = 0.0409 | 1000.34
275.15 K, Pycnometric method, m1 = 0.0504 | 1000.42
275.15 K, Pycnometric method, m1 = 0.0625 | 1000.52
275.15 K, Pycnometric method, m1 = 0.0707 | 1000.62
275.15 K, Pycnometric method, m1 = 0.0809 | 1000.69
275.15 K, Pycnometric method, m1 = 0.0904 | 1000.79
275.15 K, Pycnometric method, m1 = 0.1025 | 1000.86
283.15 K, Buoyancy - hydrostatic balance with magnetic suspension - one sinker, m1 = 0.0092 | 999.77
283.15 K, Buoyancy - hydrostatic balance with magnetic suspension - one sinker, m1 = 0.019 | 999.8
283.15 K, Buoyancy - hydrostatic balance with magnetic suspension - one sinker, m1 = 0.0291 | 999.96
283.15 K, Buoyancy - hydrostatic balance with magnetic suspension - one sinker, m1 = 0.0416 | 1000.08
283.15 K, Buoyancy - hydrostatic balance with magnetic suspension - one sinker, m1 = 0.0482 | 1000.09
283.15 K, Buoyancy - hydrostatic balance with magnetic suspension - one sinker, m1 = 0.062 | 1000.22
283.15 K, Buoyancy - hydrostatic balance with magnetic suspension - one sinker, m1 = 0.0687 | 1000.23
283.15 K, Buoyancy - hydrostatic balance with magnetic suspension - one sinker, m1 = 0.0796 | 1000.34
283.15 K, Buoyancy - hydrostatic balance with magnetic suspension - one sinker, m1 = 0.0904 | 1000.41
283.15 K, Buoyancy - hydrostatic balance with magnetic suspension - one sinker, m1 = 0.091 | 1000.39
283.15 K, Buoyancy - hydrostatic balance with magnetic suspension - one sinker, m1 = 0.0998 | 1000.48
283.15 K, Buoyancy - hydrostatic balance with magnetic suspension - one sinker, m1 = 0.1019 | 1000.46

O [water] + CCOCCO
[1], m2 = 0
Conditions | viscosity [mPa·s]
275.15 K | 1.674
283.15 K | 1.31

[1], m2 = 0
Conditions | mass density [kg/m3]
275.15 K, Pycnometric method | 999.94
283.15 K, Buoyancy - hydrostatic balance with magnetic suspension - one sinker | 999.7

COCCO [2-methoxyethan-1-ol] + O
[1]
Conditions | viscosity [mPa·s]
275.15 K, m1 = 0.0097 | 1.006
275.15 K, m1 = 0.0205 | 1.011
275.15 K, m1 = 0.0313 | 1.016
275.15 K, m1 = 0.0393 | 1.02
275.15 K, m1 = 0.0487 | 1.023
275.15 K, m1 = 0.0638 | 1.028
275.15 K, m1 = 0.0719 | 1.03
275.15 K, m1 = 0.0813 | 1.032
275.15 K, m1 = 0.0905 | 1.034
275.15 K, m1 = 0.102 | 1.035
283.15 K, m1 = 0.0104 | 1.001
283.15 K, m1 = 0.0193 | 1.002
283.15 K, m1 = 0.0326 | 1.005
283.15 K, m1 = 0.0417 | 1.006
283.15 K, m1 = 0.0492 | 1.008
283.15 K, m1 = 0.0599 | 1.011
283.15 K, m1 = 0.0698 | 1.013
283.15 K, m1 = 0.0804 | 1.016
283.15 K, m1 = 0.0893 | 1.019
283.15 K, m1 = 0.0901 | 1.019
283.15 K, m1 = 0.1 | 1.023
283.15 K, m1 = 0.1013 | 1.023

[1]
Conditions | mass density [kg/m3]
275.15 K, Pycnometric method, m1 = 0.0097 | 999.96
275.15 K, Pycnometric method, m1 = 0.0205 | 999.99
275.15 K, Pycnometric method, m1 = 0.0313 | 999.99
275.15 K, Pycnometric method, m1 = 0.0393 | 1000.02
275.15 K, Pycnometric method, m1 = 0.0487 | 1000.07
275.15 K, Pycnometric method, m1 = 0.0638 | 1000.09
275.15 K, Pycnometric method, m1 = 0.0719 | 1000.1
275.15 K, Pycnometric method, m1 = 0.0813 | 1000.12
275.15 K, Pycnometric method, m1 = 0.0905 | 1000.12
275.15 K, Pycnometric method, m1 = 0.102 | 1000.17
283.15 K, Buoyancy - hydrostatic balance with magnetic suspension - one sinker, m1 = 0.0104 | 999.73
283.15 K, Buoyancy - hydrostatic balance with magnetic suspension - one sinker, m1 = 0.0193 | 999.73
283.15 K, Buoyancy - hydrostatic balance with magnetic suspension - one sinker, m1 = 0.0326 | 999.76
283.15 K, Buoyancy - hydrostatic balance with magnetic suspension - one sinker, m1 = 0.0417 | 999.81
283.15 K, Buoyancy - hydrostatic balance with magnetic suspension - one sinker, m1 = 0.0492 | 999.79
283.15 K, Buoyancy - hydrostatic balance with magnetic suspension - one sinker, m1 = 0.0599 | 999.88
283.15 K, Buoyancy - hydrostatic balance with magnetic suspension - one sinker, m1 = 0.0698 | 999.93
283.15 K, Buoyancy - hydrostatic balance with magnetic suspension - one sinker, m1 = 0.0804 | 999.91
283.15 K, Buoyancy - hydrostatic balance with magnetic suspension - one sinker, m1 = 0.0893 | 999.94
283.15 K, Buoyancy - hydrostatic balance with magnetic suspension - one sinker, m1 = 0.0901 | 999.94
283.15 K, Buoyancy - hydrostatic balance with magnetic suspension - one sinker, m1 = 0.1 | 999.95
283.15 K, Buoyancy - hydrostatic balance with magnetic suspension - one sinker, m1 = 0.1013 | 999.97

— the NIST ThermoML archive (doi:10.1016/j.jct.2011.07.008)
